# Measurements: US20220249484A1, “METHODS FOR PREDICTING RESPONSIVENESS OF CANCER TO FERROPTOSIS-INDUCING THERAPIES” (Memorial Sloan Kettering Cancer Center, priority 2019, published 2022)
# What was measured:
# HCT116 cells [1] = test: Cell density-dependent induction of ferroptosis in HCT116 cells (cell death and lipid ROS by flow cytometry); type: cell-based, human; details: 5 μM RSL3; different cell density; cell death 24 h, lipid ROS 16 h
# Protocol: Induction and inhibition of ferroptosis. To induce ferroptosis, cells with different density were seeded in 6-well plates. For cystine-starvation experiments, cells were washed with PBS twice and then cultured in cystine-free medium in the presence of 10% (v/v) dialyzed FBS for the indicated time. The ferroptosis inducing compounds erastin and RSL3 and the ferroptosis inhibitor Ferrostatin-1 were purchased from Sigma-Aldrich (St. Louis, Mo., USA).
# Measurement of cell death, cell viability and lipid peroxidation. Cell death was analyzed by propidium iodide (Invitrogen, Waltham, Mass., USA) or SYTOX Green (Invitrogen) staining followed by microscopy or flow cytometry. For 3D spheroids, cell viability was determined using the CellTiter-Glo® 3D Cell Viability Assay (Promega, Madison, Wis., USA) according to the manufacturer's instructions. Viability was calculated by normalizing ATP levels to spheroids treated with normal full media. […]
# To test erastin-induced ferroptosis, HCT116 cells with different cell density were treated with 30 μM erastin and quantification of cell death by propidium iodide (PI) staining followed by flow cytometry (after 30 h of erastin treatment). Lipid ROS production was assessed by C11-BODIPY staining followed by flow cytometry (after 24 h of erastin treatment). […]
# HCT116 cells [2] = test: Ferroptosis in confluent HCT116 cells expressing shEcad, shMerlin or shLats1/2; type: cell-based, human; details: cell death 18 h, lipid ROS 14 h; versus shNT
# Protocol: (§1) Measurement of cell death, cell viability and lipid peroxidation. Cell death was analyzed by propidium iodide (Invitrogen, Waltham, Mass., USA) or SYTOX Green (Invitrogen) staining followed by microscopy or flow cytometry. For 3D spheroids, cell viability was determined using the CellTiter-Glo® 3D Cell Viability Assay (Promega, Madison, Wis., USA) according to the manufacturer's instructions. Viability was calculated by normalizing ATP levels to spheroids treated with normal full media. To analyze lipid peroxidation, cells were stained with 5 μM BODIPY-C11 (Invitrogen) for 30 minutes at 37° C. followed by flow cytometric analysis.
# The involvement of the Hippo signaling in the regulation of ferroptosis by cell-cell contact was also assessed. Cells depleted of Ecad, Merlin, or Lats were generated using shRNA technology. HCT116 cells were infected by lentiviruses expressing shRNA sequences targeting Ecad (shEcad), Merlin (shMerlin), or Lats1/2 (shLats1/2), as indicated. Knockdown efficiency was confirmed by Western blot (FIG. 2B). […] Cell death was measured at 30 h using SYTOX Green staining followed by flow cytometry. Lipid ROS was measured at 24 hours using C11-BODIPY staining coupled with flow cytometry. […] Cell death was measured at 18 h and lipid ROS was measured at 14 h (FIG. 11A).
# MSTO-211H cells = test: Ferroptosis in confluent MSTO-211H cells (shMerlin, shNcad); type: cell-based, human
# Protocol: as §1
# To confirm the ferroptosis-regulating role of Merlin in mesothelioma cells, the effect of Merlin knockdown on ferroptosis sensitivity was assessed. MSTO-211H cells were infected with lentiviruses expressing shMerlin. RNAi knockdown efficiency was confirmed by Western blot (FIG. 3F). Then, shNT or shMerlin MSTO-211H cells were cultured to high confluence, at which point they were treated with media containing or lacking cystine, with or without Fer-1 for 24 h. Cell death was measured by SYTOX Green staining followed by flow cytometry (FIG. 3G). To measure lipid reactive species, shNT or shMerlin MSTO-211H cells were treated for 18 h, at which point they were stained with 2 μM C11-BODIPY for lipid ROS measurement (FIG. 311). Confluent MSTO-211H cells expressing shNT or shMerlin were also treated with 1 μM RSL3 with or without […] Fer-1. Cell death (left, 24 h after treatment) and lipid ROS production (right, 16 h) were measured (FIG. 13B).
# Therefore, the cell density dependence of ferroptosis is not limited to epithelial cells expressing Ecad. […] To assess the expression of N-cadherin in MSTO-211H mesothelioma cells, the cells were cultivated at different cell densities, and the levels of Ncad, p-YAP and total YAP were analyzed by Western blot. […] Therefore, the potential role of Ncad in ferroptosis was tested. MSTO-211H cells were infected with lentiviruses expressing Ncad shRNA (shNcad) and selected with puromycin.
# MEFs = test: Ferroptosis and lipid ROS in MEFs; type: cell-based, mouse
# Protocol: as §1
# Merlin-regulated ferroptosis in cell density dependent manner was also observed in MEFs, which are not of epithelial origin. Cell death of MEFs with different cell density induced by cystine starvation for 12 h was measured by PI staining (FIG. 15A), and flow cytometry (FIG. 15B). The effect of cystine starvation on lipid ROS production in MEFs cells with different cell density (6 h treatment) is also shown in FIG. 15B. […] As shown in FIGS. 15A-15D, increased cell density mitigated both cell death and lipid ROS generation induced by cystine starvation, erastin and RSL3 in MEFs.
# MEFs also regulated the activity of YAP at high density in a Merlin-dependent manner. MEFs seeded at increasing density were probed for YAP localization by Immunofluorescence (FIG. 15E). The effect of Merlin was assessed by infecting MEFs with shMerlin lentivirus and selected with puromycin. […] As shown in FIGS. 15E-15F, with increasing cell confluence, there was an increase of YAP nuclear exclusion in MEFs, which was attenuated by Merlin knockdown.
# HCT116 cells [3] = test: RSL3-induced cell death in HCT116 cells overexpressing TFRC and/or ACSL4; type: cell-based, human; details: 2 μM RSL3, 24 h; SYTOX Green
# Protocol: To test whether TFRC and ACSL4 can directly enhance ferroptosis in confluent cells, TFRC and ACSL4 separately or in combination were overexpressed. HCT116 cells were transduced with retroviral particles containing mCherry-ACSL4, transfected with TFRC, or both. Expression was assayed by Western blot. Two bands were detected for mCherry-ACSL4, representing the full-length mCherry-ACSL4 and that with mCherry tag truncated (FIG. 17A). Additionally, cells were plated at the indicated density and treated with 2 μM RSL3 for 24 h. Cell death was measured by SYTOX Green staining coupled with flow cytometry.
# HCT116 cells [4] = test: Ferroptosis in HCT116 cells expressing PAK-CAAX; type: cell-based, human; details: constitutively active PAK-CAAX versus inactive PAK^K298R-CAAX
# NF639 cells [5] = test: Expression of EMT-related genes by qPCR after TGF-β; type: cell-based, mouse; details: various concentrations of TGF-β, 48 h
# Protocol: RNA extraction and qRT-PCR. RNA was extracted using the TRIzol reagent (Invitrogen). 20% chloroform was added to each sample, vortexed briefly, and incubated at room temperature for 15 min. Samples were then centrifuged at high speed at 4° C. for 15 min. The aqueous phase was moved to a new tube and an equal volume of isopropanol was added. Samples were incubated at room temperature for 10 min, followed by centrifugation at high speed at 4° C. for 10 min. Pellets were washed in 95% ethanol, dried, and resuspended in nuclease-free water. cDNA was synthesized using iScript™ cDNA Synthesis Kit according to the manufacturer's instructions (Bio-Rad). qRT-PCR was performed with IQ™ SYBR® Green Supermix (Bio-Rad) in a CFX Connect Real-Time PCR Detection System (Bio-Rad).
# The potential link between epithelial-mesenchymal transition (EMT) and ferroptosis was examined using cells generated from mammary tumors of MMTV-neu mice. NF639 cells, derived from mouse mammary tumors containing MMTV-neu, were treated with various concentrations of TGF-β for 48 h to induce EMT. TGF-β can enhance EMT in cells bearing overactive HER2/neu signaling. Expression of a panel of EMT-related genes was assayed by qPCR as indicated.
# NF639 cells [6] = test: Cystine deprivation-induced ferroptosis after TGF-β; type: cell-based, mouse; details: 6 ng/μL TGF-β 48 h; 3.2×10^5 cells/3.5 cm^2 well; cystine-free 12 h; untreated cells highly resistant
# Protocol: To determine the effect of TGF-β on cystine deprivation induced ferroptosis, NF639 cells were treated with or without 6 ng/μL TGF-β for 48 h, at which point they were plated at low density (0.8 cells×10^5/3.5 cm^2 well), grown overnight, and treated with media containing or lacking cystine, or lacking cystine with 1 μM ferrostatin-1 for 12 h. NF639 cells were also plated at a high density of 3.2×10^5 cells/3.5 cm^2 well, grown overnight and treated with media containing or lacking cystine, or lacking cystine with 1 μM ferrostatin-1 for 12 h. Cell death was measured by Sytox green staining coupled with flow cytometry.
Molecule,"RSL3-induced ferroptosis (cell death, lipid ROS) (HCT116 cells [1])","RSL3-induced cell death and lipid ROS after knockdown of Ecad, Merlin, Lats1/2 (HCT116 cells [2])","sensitivity of confluent shNcad cells to RSL3 (cell death) (MSTO-211H cells; 1 μM RSL3, 16 h)","sensitivity of confluent shMerlin cells to RSL3 (cell death, lipid ROS) (MSTO-211H cells; 1 μM RSL3, cell death 24 h, lipid ROS 16 h)","RSL3-induced ferroptosis and lipid ROS in MEFs at different densities (MEFs; 1 μM RSL3, ferroptosis 8 h, lipid ROS 5 h)","RSL3-induced cell death and lipid ROS in confluent Merlin RNAi MEFs (MEFs; RSL3 1 μM, 8 h)","RSL3-induced cell death, confluent cells co-expressing TFRC and ACSL4 (HCT116 cells [3])","RSL3-induced cell death, confluent cells expressing either TFRC or ACSL4 (HCT116 cells [3])",RSL3-induced ferroptosis in PAK-CAAX expressing cells (HCT116 cells [4]),expression of EMT-related genes (NF639 cells [5]),cell death under cystine starvation at high cell density (NF639 cells [6])
COC(=O)c1ccc([C@@H]2c3[nH]c4ccccc4c3C[C@@H](C(=O)OC)N2C(=O)CCl)cc1 [RSL3],induces HCT116 human colon cancer cells to undergo ferroptosis in a cell density-dependent manner,sensitized HCT116 cells to ferroptosis and increased lipid ROS accumulation,sensitized these cells to ferroptosis,became sensitive,ferroptosis (8 h) and lipid ROS production (5 h) was also observed,increased cell death and lipid ROS production,further enhanced cell death,partially sensitized to ferroptosis,enhanced RSL3-induced ferroptosis,–,–
TGF-β,–,–,–,–,–,–,–,–,–,upregulated the expression of multiple EMT-related genes,died under cystine starvation at high cell density
